These results are taken from patent US20050261478A1, “Compositions and methods for regulating lymphocyte activation” (XCYTE Therapies, Inc., priority 1998, published 2005).

Bridge positions count the residues as written; N and C are the ends. Peptide text beside a SMILES is read from it.

One experiment addresses T1, CD3ε δIg (Homo sapiens, UniProt P04234+P07766).
T1 construct: made in house; host or cells: COS-7 (transient, DEAE-dextran); purified on protein A-Sepharose
As to the kind of experiment: BIACORE binding of CDR3 peptides. The settings on record: peptides cyclized and characterized as pools of 3-5, CD3ε δhuIg impure mixture, nd = non detectable binding, read-out: Binding Affinity, CD3ε δIg. The protocol:
(§1) Peptides corresponding to the entire CDR3 regions of anti-CD3 and […] mAbs were synthesized, and Tyr/Phe-Cysteine residues were added to both amino and carboxyl termini. Modifications of peptides were made by eliminating one amino acid of the CDR3 region at a time from the terminus. Peptide synthesis was carried out on solid phase by using Fmoc chemistry (HBTU/DIEA activation and TFA cleavage). Crude peptides were combined in a batch of 3-5 peptides and cyclized by air oxidation at pH 8.5. Crude cyclic peptides were purified on a reverse phase HPLC, lyophilized and characterized by analytical HPLC and mass spectroscopy.
(§2) BIACORE uses surface plasmon resonance (SPR) which occurs when surface plasmon waves are excited at a metal/liquid interface. Light is directed at, and reflected due to bimolecular interactions between analyte (in solution) and ligand (immobilized). CD3εδhuIg, CD3εεhuIg and CD28huIg were covalently immobilized on a carboxymethy dextran chip using EDC/NHS chemistry followed by blocking with ethanol amine. Peptides were dissolved in HBS buffer at pH 7.2 with or without 1% DMSO, and were allowed to pass over these fusion protein-immobilized surfaces. Non-specific binding was substrated by passing these peptides over a controlled surface prepared by immobilizing EDC/NHS alone followed by ethanolamine.
(In SPR one partner is held on a chip, and binding of the other changes the refractive index at the surface.)

The next experiment has as its system G19-4 anti-CD3 mAb. The experiment in a line: ELISA of CD3-Ig fusion proteins captured by immobilized anti-CD3 mAb. Format: binding. The settings on record: up to 100 μg/ml fusion protein. The source says: Transient expression in COS-7 cells was used to generate different CD3-Ig fusion proteins. The plasmids phCD3ε-Ig, and phCD3γ-Ig were transfected individually or in combinations of phCD3ε-Ig+phCD3δ-Ig and phCD3ε-Ig+phCD3γ-Ig into COS-7 by the DEAE-dextran method. Transfected cells were maintained in medium supplemented with a low concentration, 0.5%, FBS and insulin. Spent media were collected in three-day intervals up to three weeks post transfection. Fusion proteins were then purified from spent media by protein A-Sepharose chromatography. Fusion protein expression was confirmed by SDS-PAGE and ELISA using anti-CD3 mAb.
CD3-Ig fusion proteins were characterized by ELISA using a number of anti-CD3 mAbs including G19-4, OKT3, BC3, and 64.1 Anti-CD3 mAbs were immobilized to capture CD3-Ig. An antibody-horseradish peroxidase conjugate specific against human IgG […] was used to detect the binding of CD3-Ig to anti-CD3 mAbs. Like the control CD4-Ig, no binding of CD3δ-Ig to G19-4 was detectable even at 100 μg/ml of the fusion protein (FIG. 20). […] and […] saturated at 4 μg/ml and 20 μg/ml in this assay, respectively. […] In addition, binding affinities of the CD3-Ig fusion proteins to different anti-CD3 antibodies were measured by BIACORE, and the results are shown in Table IV. […]

The test system of the next experiment is CD4^+ T cells. As to the kind of experiment: Proliferation of purified T cell subsets with immobilized antibodies. Format: cell-based, human. The conditions noted are these: antibodies immobilized on microtiter plates, 4 days. As for the experimental part: (§3) T cells were isolated from peripheral blood by centrifugation on “FICOLL”, followed by separation into CD4^+ or CD8^+ subsets by depletion of monocytes, B cells, NK cells, and either CD4 or CD8 cells. Cell depletion was performed using mAbs to CD14, CD20, CD11b, and CD8 or CD4 followed by removal of antibody-bound cells using magnetic beads coated with anti-mouse IgG CD4^+ or CD8^+ T cells were >95% pure after the depletion step when analyzed by flow cytometry. Cells were cultured in antibody-coated microtiter plates at 5×10^4 for 4 days, and proliferation was measured by incorporation of ^3H-thymidine for the final 12 hours of culture. Microtiter plates contained immobilized antibodies as indicated, including the control, nonbinding L20 antibody in some wells to equalize the total protein concentration for immobilization. Antibodies were immobilized by incubation at 10 μg/ml each for 18 hr at 37° C., followed by removal of unbound protein by extensive washing.

Another experiment deals with CD8^+ T cells. The description is as above. Format: cell-based, human. The settings on record: antibodies immobilized on microtiter plates, 4 days. As for the experimental part:
as §3

In the next experiment the target is T2, CD28Ig (Homo sapiens, UniProt P10747).
T2 construct: human Ig (huIg) fusion partner
T2 sequence (P10747 19-152 limits assumed): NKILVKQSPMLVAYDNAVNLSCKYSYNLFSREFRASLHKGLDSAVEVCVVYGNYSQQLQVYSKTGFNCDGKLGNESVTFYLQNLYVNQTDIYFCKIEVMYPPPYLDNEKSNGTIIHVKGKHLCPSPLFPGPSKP
As to the kind of experiment: BIACORE binding of CDR3 peptides. The settings on record: peptides cyclized and characterized as pools of 3-5, nd = non detectable binding, read-out: Binding Affinity, CD28Ig. The protocol:
as §1, §2

T1 sequence (P07766 23-126): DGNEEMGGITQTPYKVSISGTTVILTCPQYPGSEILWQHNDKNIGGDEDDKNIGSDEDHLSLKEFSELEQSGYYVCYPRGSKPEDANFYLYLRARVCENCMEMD
T1 sequence (P04234 22-100): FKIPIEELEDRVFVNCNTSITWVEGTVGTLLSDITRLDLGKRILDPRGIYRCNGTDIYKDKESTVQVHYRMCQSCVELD

`NCCCC[C@@H]1NC(=O)[C@H](Cc2c[nH]c3ccccc23)NC(=O)[C@H](CC(=O)O)NC(=O)[C@H](Cc2ccccc2)NC(=O)[C@@H](NC(=O)[C@@H](N)Cc2ccc(O)cc2)CSSC[C@@H](C(=O)N[C@@H](Cc2ccc(O)cc2)C(=O)O)NC(=O)[C@H](CC(N)=O)NC1=O` [YCFDWKNCY (SEQ ID NO:80)] (H-YCFDWKNCY-OH; disulfide 2-8; N-terminus and C-terminus assumed): the Kd at CD3ε δIg stood at 0.5 µM. Same read-out and setting: the result for `N[C@@H](Cc1ccc(O)cc1)C(=O)N[C@H]1CSSC[C@@H](C(=O)N[C@@H](Cc2ccc(O)cc2)C(=O)O)NC(=O)CNC(=O)[C@H](CC(=O)O)NC(=O)[C@H](Cc2ccc(O)cc2)NC(=O)[C@H](CC(=O)O)NC(=O)[C@H](Cc2ccc(O)cc2)NC1=O` [YCYDYDGCY (SEQ ID NO:75)] (H-YCYDYDGCY-OH; disulfide 2-8; N-terminus and C-terminus assumed) reads 10 µM. On to “CD3ε-Ig: CD3ε extracellular domain fused to human IgG1 hinge-CH2-CH3”, for which the “Binding of CD3-Ig fusion protein to G19-4” value with G19-4 anti-CD3 mAb is “detectable”.

Regarding “OKT-3: MAb anti-CD3, obtained from ATCC (ATCC CRL-8001)”, in the experiment with CD4^+ T cells, the “Proliferation of CD4^+ T cells” value was “minimal”. The “Proliferation of CD8^+ T cells” value with CD8^+ T cells is recorded as “minimal”. For the molecule “YCARDSDWYFDVCW [cyclized peptide derived from CDR3 region of an anti-CD3 or anti-CD28 mAb]”, the Kd at CD3ε δIg was found to be 50 µM. For the molecule “YCGYSYYYSMDYCW [cyclized peptide derived from CDR3 region of an anti-CD3 or anti-CD28 mAb]”, on CD28Ig, the Kd was 1 µM. Take “YCRSAYYDYDGIAYCW [cyclized peptide derived from CDR3 region of an anti-CD3 or anti-CD28 mAb]”: the Kd at CD28Ig is 166 µM; on CD3ε δIg, 7 µM.

B1: CD3γ-Ig: CD3γ extracellular domain fused to human IgG1 hinge-CH2-CH3 (protein)
chain: QSIKGNHLVKVYDYQEDGSVLLTCDAEAKNITWFKDGKMIGFLTEDKKKWNLGSNAKDPRGMYQCKGSQNKSKPLQVYYRMCQNCIELNAATIS
modifications: left off: a dimerising Fc or GST
notes: CD3γ extracellular domain fused to human IgG1 hinge-CH2-CH3
With B1, in the experiment on G19-4 anti-CD3 mAb, the “Binding of CD3-Ig fusion protein to G19-4” value was “detectable”.
